Source: ChEMBL document CHEMBL3882726, “Pyrimidine Derivatives As Kinase Modulators and Method of Use” (2008)

Target: Insulin-like growth factor 1 receptor (Homo sapiens, UniProt P08069)
Test: Inhibition of human IGF1R kinase domain (M954 to C1367 residues) tri-phosphorylated enzyme form expressed in baculovirus based expression system using poly-EY peptide incubated for 2 hrs by luciferase-luciferin coupled chemiluminescent assay

Sequence of Insulin-like growth factor 1 receptor (P08069 31-736 limits assumed): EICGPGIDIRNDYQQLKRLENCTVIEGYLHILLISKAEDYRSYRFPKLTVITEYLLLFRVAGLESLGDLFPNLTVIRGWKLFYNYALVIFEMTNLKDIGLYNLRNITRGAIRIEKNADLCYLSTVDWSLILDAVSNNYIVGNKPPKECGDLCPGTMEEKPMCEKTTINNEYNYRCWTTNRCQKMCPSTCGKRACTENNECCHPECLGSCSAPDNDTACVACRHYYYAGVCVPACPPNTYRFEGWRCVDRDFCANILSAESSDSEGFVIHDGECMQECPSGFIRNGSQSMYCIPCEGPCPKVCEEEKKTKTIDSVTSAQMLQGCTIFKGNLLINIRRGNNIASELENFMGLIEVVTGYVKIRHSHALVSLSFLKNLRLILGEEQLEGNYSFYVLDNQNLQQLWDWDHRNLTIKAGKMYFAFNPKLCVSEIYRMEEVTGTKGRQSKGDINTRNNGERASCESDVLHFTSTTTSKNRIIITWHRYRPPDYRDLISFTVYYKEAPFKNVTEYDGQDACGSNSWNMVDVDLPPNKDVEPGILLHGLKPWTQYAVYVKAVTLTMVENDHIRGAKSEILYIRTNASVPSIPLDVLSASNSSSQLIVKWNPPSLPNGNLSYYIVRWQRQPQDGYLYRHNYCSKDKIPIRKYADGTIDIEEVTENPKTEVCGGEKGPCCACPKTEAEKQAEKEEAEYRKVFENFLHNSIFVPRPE
Sequence of Insulin-like growth factor 1 receptor (P08069 741-1367 limits assumed): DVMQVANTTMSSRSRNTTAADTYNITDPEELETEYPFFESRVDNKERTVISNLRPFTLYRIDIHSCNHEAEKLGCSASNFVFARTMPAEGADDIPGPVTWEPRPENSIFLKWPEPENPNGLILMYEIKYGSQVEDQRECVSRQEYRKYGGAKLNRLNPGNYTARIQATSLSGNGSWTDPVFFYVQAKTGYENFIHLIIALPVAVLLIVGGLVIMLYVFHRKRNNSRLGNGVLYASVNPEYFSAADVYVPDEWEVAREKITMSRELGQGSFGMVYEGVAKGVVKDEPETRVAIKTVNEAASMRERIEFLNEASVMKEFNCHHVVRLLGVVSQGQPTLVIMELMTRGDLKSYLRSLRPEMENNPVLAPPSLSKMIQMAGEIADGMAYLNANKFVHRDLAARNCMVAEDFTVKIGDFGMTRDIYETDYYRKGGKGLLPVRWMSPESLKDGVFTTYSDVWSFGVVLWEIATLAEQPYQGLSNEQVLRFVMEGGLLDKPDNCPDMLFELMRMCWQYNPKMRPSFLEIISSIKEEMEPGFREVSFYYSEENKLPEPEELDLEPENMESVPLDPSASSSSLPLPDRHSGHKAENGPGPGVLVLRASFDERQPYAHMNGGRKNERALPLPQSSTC

IC50: ≥ 5 µM
SMILES: COc1cc(Nc2nc(C)cc(Nc3cc(C4CC4)n[nH]3)n2)cc([N+](=O)[O-])c1
